# Data taken from ChEMBL document CHEMBL5042496, “An unanticipated discovery towards novel naphthalimide corbelled aminothiazoximes as potential anti-MRSA agents and allosteric modulators for PBP2a” (Eur J Med Chem, 2022).
# Key:
# [1] = test system: Staphylococcus aureus; experiment: Antibacterial activity against methicillin-resistant Staphylococcus aureus assessed as bacterial growth inhibition measured after 24 hrs by two fold serial dilution technique; type: functional
# [2] = test system: Enterococcus faecium; experiment: Antibacterial activity against Enterococcus faecium assessed as bacterial growth inhibition measured after 24 hrs by two fold serial dilution technique; type: functional
# [3] = test system: Staphylococcus aureus; experiment: Antibacterial activity against Staphylococcus aureus assessed as bacterial growth inhibition measured after 24 hrs by two fold serial dilution technique; type: functional
# [4] = test system: Staphylococcus aureus; experiment: Antibacterial activity against Staphylococcus aureus ATCC 25923 assessed as bacterial growth inhibition measured after 24 hrs by two fold serial dilution technique; type: functional
# [5] = test system: Staphylococcus aureus; experiment: Antibacterial activity against Staphylococcus aureus ATCC 29213 assessed as bacterial growth inhibition measured after 24 hrs by two fold serial dilution technique; type: functional
# [6] = test system: Klebsiella pneumoniae; experiment: Antibacterial activity against Klebsiella pneumoniae assessed as bacterial growth inhibition measured after 24 hrs by two fold serial dilution technique; type: functional
# [7] = test system: Escherichia coli; experiment: Antibacterial activity against Escherichia coli assessed as bacterial growth inhibition measured after 24 hrs by two fold serial dilution technique; type: functional
# [8] = test system: Pseudomonas aeruginosa; experiment: Antibacterial activity against Pseudomonas aeruginosa assessed as bacterial growth inhibition measured after 24 hrs by two fold serial dilution technique; type: functional
# [9] = test system: Acinetobacter baumannii; experiment: Antibacterial activity against Acinetobacter baumannii assessed as bacterial growth inhibition measured after 24 hrs by two fold serial dilution technique; type: functional
# [10] = test system: Pseudomonas aeruginosa; experiment: Antibacterial activity against Pseudomonas aeruginosa ATCC 27853 assessed as bacterial growth inhibition measured after 24 hrs by two fold serial dilution technique; type: functional
# [11] = test system: Escherichia coli; experiment: Antibacterial activity against Escherichia coli ATCC 25922 assessed as bacterial growth inhibition measured after 24 hrs by two fold serial dilution technique; type: functional
# [12] = Hemolytic activity in human RBC assessed as hemolysis incubated for 1 hr; type: toxicity, cell-based, Erythrocyte; details: red blood cells
SMILES,MIC [1] [µg/mL],MIC [2] [µg/mL],MIC [3] [µg/mL],MIC [4] [µg/mL],MIC [5] [µg/mL],MIC [6] [µg/mL],MIC [7] [µg/mL],MIC [8] [µg/mL],MIC [9] [µg/mL],MIC [10] [µg/mL],MIC [11] [µg/mL],HC50 at 1 h [12] [µg/mL]
CO/N=C(\C(=O)N1CCN(c2ccc3c4c(cccc24)C(=O)N(N)C3=O)CC1)c1csc(N)n1,4,32,64,32,64,32,2,16,32,32,64,250
CO/N=C(\C(=O)N1CCN(c2ccc3c4c(cccc24)C(=O)N(CCO)C3=O)CC1)c1csc(N)n1,2,16,64,16,32,64,16,16,16,64,64,214
CO/N=C(\C(=O)N1CCN(c2ccc3c4c(cccc24)C(=O)N(NCCO)C3=O)CC1)c1csc(N)n1,4,64,64,8,64,16,2,32,16,32,128,325
CO/N=C(\C(=O)N1CCN(c2ccc3c4c(cccc24)C(=O)N(c2nc4ccccc4s2)C3=O)CC1)c1csc(N)n1,16,64,128,128,128,16,64,64,128,32,16,334
CO/N=C(\C(=O)N1CCN(c2ccc3c4c(cccc24)C(=O)N(CC#N)C3=O)CC1)c1csc(N)n1,16,8,64,128,32,16,128,256,8,64,64,299
CN(C)[C@@H]1C(O)=C(C(N)=O)C(=O)[C@@]2(O)C(O)=C3C(=O)c4c(O)cccc4[C@@](C)(O)[C@H]3C[C@@H]12 [TETRACYCLINE],1,2,1,4,4,16,0.25,0.25,0.25,64,1,
CO/N=C(\C(=O)N1CCN(c2ccc3c4c(cccc24)C(=O)N(C2CC2)C3=O)CC1)c1csc(N)n1,32,32,32,16,64,32,32,64,16,128,64,266
CO/N=C(\C(=O)N1CCN(c2ccc3c4c(cccc24)C(=O)N(CCC(=O)O)C3=O)CC1)c1csc(N)n1,8,16,64,16,64,128,8,16,16,32,64,210
CO/N=C(\C(=O)N1CCN(c2ccc3c4c(cccc24)C(=O)N(c2nc4ccccc4[nH]2)C3=O)CC1)c1csc(N)n1,4,128,128,128,128,8,256,16,128,32,16,367
CCCCCCCCCCCCN1C(=O)c2cccc3c(N4CCN(C(=O)/C(=N\OC)c5csc(N)n5)CC4)ccc(c23)C1=O,64,32,16,128,128,64,64,64,16,64,128,359
CO/N=C(\C(=O)N1CCN(c2ccc3c4c(cccc24)C(=O)N(CC(=O)O)C3=O)CC1)c1csc(N)n1,64,64,256,128,64,128,32,16,32,64,64,1000
O=C(O)c1cn(C2CC2)c2cc(N3CCNCC3)c(F)cc2c1=O [CIPROFLOXACIN],4,2,2,0.5,8,2,,,2,,,
